Assay results reported in patent US10751353B2, “Compositions and methods for treating an aggregation disease or disorder” (Seelos Therapeutics, Inc., priority 2013, dated 2020).
Values joined by “and” are separate entries in the source; they are usually repeats but may differ in a detail not shown here. Equal values may be shown once. Read-outs that look alike come from different tables or passages of the source.

Legend:
[1] = cited from earlier work
[2] = cited from earlier work; remark: listed apart in the source
OPMD mouse model = conditions: cited from earlier work
[3] = Preclinical PK study: plasma and muscle concentrations of trehalose after IV bolus and oral gavage; format: in vivo, male Sprague-Dawley (SD) rats
Experimental: The plasma and muscle concentrations of trehalose in male Sprague-Dawley (SD) rats was determined after intravenous bolus (IV) and oral gavage (PO) administration.
The study included 42 SD rats (male, 250 to 350 grams in weight, the Shanghai SLAC Laboratory Animal Co. Ltd.). Animals were administered with a volume of 5 ml/kg trehalose formulation (trehalose dihydrate in sterilized water at 200 mg/mL) to achieve a nominal dose of 1 gr/kg, intravenously or orally.
Blood samples were collected after each dose administration and processed for plasma. Muscle samples (hind leg muscle) were collected and homogenized. The concentrations of trehalose in plasma and muscle homogenate samples were analyzed by qualified bioanalytical LC/MS/MS methods.
Plasma concentration data of trehalose was subjected to a non compartmental pharmacokinetic analysis using WinNonlin software program (version 6.3, Pharsight, Mountain View, Calif.). Zero-time intercept concentration (C0), volume of distribution (Vdss), Clearance (Cl) peak plasma concentrations (Cmax) and the corresponding peak times (Tmax), terminal half-life (T½), mean residence time (MRT) from time zero to the last time point (MRT0-last), MRT from time zero to infinity (MRT0-inf), the area under the plasma concentration-time curve (AUC) from time zero to the last time point (AUC0-last) and AUC from time zero extrapolated to infinity (AUC0-inf) were calculated using the linear/log trapezoidal rule. Nominal sampling times were used to calculate all pharmacokinetic parameters since there was not any deviation larger than 5% between the actual and nominal sampling times.
The values of muscle to plasma concentration and AUC ratio (M/P ratio) were both calculated.

Dog = conditions: cited from earlier work; for LD50: Dog
Rat = conditions: cited from earlier work
mutant PABPN1 proteins = conditions: OPMD cell models; cited from earlier work
Mouse = conditions: cited from earlier work; for LD50: Mouse
[4] = rabbits; 500 mg intravenously; cited from earlier work
[5] = male, Sprague-Dawley, rat, in vivo, iv, 1000 mg/kg
[6] = male, Sprague-Dawley, rat, in vivo, po, 1000 mg/kg

For `OC[C@H]1O[C@H](O[C@H]2O[C@H](CO)[C@@H](O)[C@H](O)[C@H]2O)[C@H](O)[C@@H](O)[C@@H]1O` [trehalose], the “share of ingested trehalose absorbed into the blood stream” value ([1]; oral ingestion) is listed as “Less than 0.5%”, the “share of trehalose not absorbed into the blood stream” value ([1]; oral) is listed as “Over 99.5%” and the “safety in healthy volunteers” value ([2]; oral doses 10 to 60 gr, apart from mild abdominal symptoms) is listed as “no other safety issues were reported”. The “oral amount that causes diarrhea and bloating” value ([2]; oral) was 40-50 gram per day, the “oral amount that frequently causes diarrhea, bloating and discomfort” value ([2]; oral, humans) was “higher than 50 g a day” and the aggregate formation (OPMD mouse model) was “decreased aggregate formation”. The muscle weakness (OPMD mouse model) was “attenuation of muscle weakness”, the “number of pathological skeletal muscle fibers” value (OPMD mouse model) was “reduced number of pathological skeletal muscle fibers” and the “tolerability at the given dosage” value ([3]; 1000 mg/kg IV or PO, male SD rats) was “well tolerated”. For the same molecule, the bioavailability ([3]; male, Sprague-Dawley, rat, in vivo, 1000 mg/kg) was 0.601%, the AUC(0-inf) [3, 5] was 781 µg·h/mL and the “CI (total clearance)” value [3, 5] was 17.2 mL/min/kg. For the same molecule, the Cmax [3, 5] was 3730 ng/mL and 3730 ng/g, the Vd [3, 5] was 0.685 L/kg and the Vdss [3, 5] was 0.685 L/kg. For the same molecule, the clearance [3, 5] was 17.2 mL/min/kg, the “total clearance as share of rat liver blood flow (=55 mL/min/kg)” value [3, 5] was “approximately 31.3%” and the AUC(0-t) ([3]; male, Sprague-Dawley, rat, in vivo, iv, 1000 mg/kg, AUC0-last) was 778 µg·h/mL. The Kp ([3]; male, Sprague-Dawley, rat, in vivo, iv, 1000 mg/kg, AUC ratio = Muscle AUC0-inf/Plasma AUC0-inf) was 0.234, the Kp ([3]; male, Sprague-Dawley, rat, in vivo, iv, 1000 mg/kg, mean ratios of muscle trehalose concentration to plasma concentration) was 2.88 to 3.76 and the AUC(0-t) ([3]; male, Sprague-Dawley, rat, in vivo, iv, 1000 mg/kg, muscle exposure AUC0-last (48 hr)) was 107 µg·h/mL. For the same molecule, the AUC0-inf/AUC0-last [3, 6] was 108%, the AUC0-last [3, 6] was 4.52 µg·h/mL and the AUC(0-inf) [3, 6] was 4.87 µg·h/mL. For the same molecule, the Cmax [3, 6] was 4280 ng/mL, the T1/2 [3, 6] was 0.740 h and the AUC(0-t) ([3]; male, Sprague-Dawley, rat, in vivo, po, 1000 mg/kg, AUC0-last) was 4.52 µg·h/mL. The MRT inf ([3]; male, Sprague-Dawley, rat, in vivo, po, 1000 mg/kg, MRT0-inf) was 1.26 h, the MRT last ([3]; male, Sprague-Dawley, rat, in vivo, po, 1000 mg/kg, MRT0-last) was 1.04 h and the half-life ([3]; male, Sprague-Dawley, rat, in vivo, po, 1000 mg/kg, T1/2) was 0.74 h. The “cellular uptake and retention after rapid intravenous administration” value ([3]; rat, in vivo, iv) was 48 to 72 h, the AUC0-last ([3]; rat, in vivo, iv, 1000 mg/kg) was 107000 ng·h/g and the AUC(0-inf) ([3]; rat, in vivo, iv, 1000 mg/kg) was 183000 ng·h/g. The “muscle samples of oral group” value ([3]; rat, in vivo, po, 1000 mg/kg) was “below LLOQ”, the “plasma and muscle concentrations of trehalose, formulation administered orally” value ([3]; rat, in vivo, po, 1000 mg/kg) was “undetectable” and the LD50 (Dog; Intravenous) was >1000 mg/kg bw. For the same molecule, the LD50 (Dog; Oral) was >5000 mg/kg bw, the “signs of toxicity and deaths” value (Dog; dogs, oral and intravenous administration) was “no deaths occurred” and the LD50 (Rat; Rat, Intravenous) was >1000 mg/kg bw. The “signs of toxicity and deaths” value (Rat; rats, oral and intravenous administration) was “no deaths occurred”, the “aggregation and toxicity of mutant PABPN1 proteins” value (mutant PABPN1 proteins) was “effective in reducing” and the LD50 (Mouse; Intravenous) was >1000 mg/kg bw. For the same molecule, the LD50 (Mouse; Oral) was >5000 mg/kg bw, the “signs of toxicity and deaths” value (Mouse; mice, oral and intravenous administration) was “no deaths occurred” and the “time to clearance from the plasma” value [4] was ≤ 60 min. For the same molecule, the “trehalose detected in the urine” value [4] was “none was detected”.
